Experimental findings from US9744196B2, “Composition for parenteral administration, method for producing and method use thereof” (N2 PHARMACEUTICALS LTD, priority 2013, dated 2017) are described below.

The test deals with white rats. As to the kind of experiment: Adaptogenic (antistress) properties, shaker-induced transport stress. The class given is in vivo. The protocol: Tests were conducted on 84 white rats and 36 white mice using pharmacological, haematological, biochemical and immunologic assays known in the art. Upon studying beneficial effects of composition A on the organisms of laboratory animals, certain haematological and immunobiological indices of the test and control animals were considered. Haematological parameters were evaluated in blood specimens by methods known in the art: white blood cells count per 1 cubic millimeter using Gorjaev's chamber. The following immunobiological indices were counted: blood protein content, glucose, phagocytosis and a number of other parameters, characterizing condition of an organism. The total protein content in blood serum was measured by refractometric analysis. Refractive index of blood serum depends mainly on the amount of proteins.
Glucose concentration was measured using the ortho-toluidine method based on staining of glucose compound with ortho-toluidine in acetic acid solution, the intensity of said being proportional to the glucose concentration.
The test was conducted on 12 rats, 4 animals being in each of three groups. Stress in experimental white rats was induced using a shaking machine simulating transport (physical) stress. The box with animals was placed onto the shaker and held atop the operating machine for 30-40 min. The most informative parameters, characterizing the onset and development of stress response (stress mediators): glucose, total protein and leukocytes (WBC) levels, were measured in blood of the white rats.
Composition A was administered to the animals of the 1st group intramuscularly 3 days previous to stress induction in a dose of 0.2 ml. 2.5% solution of neuroleptic agent aminazin in a dose of 0.5 mg per capita was administered to the animals of the 2nd group. A normal saline solution was administered intramuscularly to the animals of the 3rd (control) group. Rats' blood examination to estimate the above parameters was performed 1 h and 24 h after stress induction.

The mark [1] stands for this setting: 24 hours after stress induction.

Molecules are shown by their SMILES.

`CN(C)CCCN1c2ccccc2Sc2ccc(Cl)cc21` [Aminazin, aminazin]: the Glucose is, setting by setting: (1 hour after stress induction) 6.46 ± 0.45 mmol/L; (1 hour after stress induction, listed as aminazin) 6.46 ± 0.45 mmol/L; under setting [1], 6.25 ± 0.3 mmol/L; (24 hours after stress induction, listed as aminazin) 6.25 ± 0.3 mmol/L. For the same compound, the “Leukocytes (WBC)” value (1 hour after stress induction) was 4.3 ± 0.4 10^3/uL and the “Leukocytes (WBC)” value under setting [1] was 6.1 ± 0.3 10^3/uL. The Total protein turned out to be 66.0 ± 0.5 g/L (1 hour after stress induction) and 72.4 ± 1.6 g/L under setting [1].
